{"source": "patent US10927067B2", "about": "“Organic crystalline salt of haloacetic acid” (priority 2016, dated 2021)", "key": {"[1]": {"conditions": "crystals from 95% ethanol, Example 3", "quoted_text": "Mixture of dichloroacetic acid (V) (1.28 g, 1.2894 mmol) and tromethamine (DI) (1.2 g) are dissolved in 10 ml of 95% ethanol."}, "[2]": {"tested_on": "MCF7 cells", "test": "zebrafish xenotransplantation tumor model (zebrafish model of hepatocarcinoma), oral dosing with feed for 14 days", "format": "in vivo", "experimental": "The study was carried out in group sizes of 6 adult fish. Fish were induced with tumor through xenotransplantation of log phase cells. Groups were treated with compounds through oral dosing and treated groups were compared to vehicle treated, to quantify activity against tumor.\nFishes were anesthetized using cold water of 15° C. and 3 ul of 1×10^6 log phase MCF7 cells were injected into the peritoneum to induce tumor. Fish were transferred to housing tanks and maintained for 21 days until tumor reached maximum growth phase.\nThe stock compound is prepared by dissolving appropriate amount of compound in 1 ml of Phosphate Buffered Saline (PBS—8 g of NaCl, 0.2 g of KCl, 1.44 g of Na2HPO4 and 0.24 g of KH2PO4 is made to 1 litre and pH adjusted to 7.4.) containing 20% DMSO and 30% fish feed grade coconut oil and stored at 4° C. until use.\nFishes were dosed by mixing the compound with feed for 14 days. A per day dosing weight of compound was dissolved in 3 ul of compound dissolving medium and added to a pellet. The pellets were dried at 70 degrees to remove moisture prior to adding compound and post addition and absorption of compound the pellets were transferred to 4° C.\nStatistical comparisons were made using GraphPad. Student's t test with a 95% confidence interval was performed using a two-way ANOVA at an alpha=0.05 (95% confidence interval). Significance is denoted with asterisks: ns not significant, *P<0.05, **P<0.01, ***P<0.001, ****P<0.0001."}, "[3]": {"conditions": "DSC, FIG. 5", "experimental": "DSC measurements were carried out using STA 6000 (Simultaneous Thermal Analyzer TG with DSC/DTA).\nTGA measurements were carried out using STA 6000 (Simultaneous Thermal Analyzer TG with DSC/DTA)."}, "[4]": {"conditions": "5 mM concentration, 14 days treatment, FIG. 8"}}}
{"compound": "dichloroacetate tromethamine [Formula (VII)]", "values": [{"measurement": "water solubility", "setting": "[1]", "result": "water soluble"}, {"measurement": "mortality", "setting": "[2]; 1 mM concentration, FIG. 7", "result": "No mortality"}, {"measurement": "relative neovascularization reversal", "setting": "[2]; 1 mM concentration, FIG. 7", "result": "≤ 90", "unit": "%"}, {"measurement": "tumor reversal", "setting": "[2]; 1 mM concentration, FIG. 7", "result": "≤ 60", "unit": "%"}, {"measurement": "mortality", "setting": "[2]; [4]", "result": "No mortality"}, {"measurement": "neovascularization reversal", "setting": "[2]; 5 mM concentration, FIG. 8", "result": "complete"}, {"measurement": "relative tumor reversal", "setting": "[2]; 5 mM concentration, FIG. 8", "result": "up to 90%"}, {"measurement": "thermally stable upto", "setting": "[3]", "result": "≤ 150", "unit": "°C"}]}
{"compound": "O=C([O-])C(Cl)Cl.[Na+]", "note": "[Formula (VI), sodium dichloroacetate, reference compound]", "values": [{"measurement": "mortality", "setting": "[2]; 1 mM concentration, FIG. 7", "result": 70, "unit": "%"}, {"measurement": "relative neovascularization reversal", "setting": "[2]; 1 mM concentration, FIG. 7", "result": 60, "unit": "%"}, {"measurement": "tumor reversal", "setting": "[2]; 1 mM concentration, FIG. 7", "result": 40, "unit": "%"}, {"measurement": "mortality", "setting": "[2]; [4]", "result": 90, "unit": "%"}, {"measurement": "neovascularization reversal", "setting": "[2]; 5 mM concentration, FIG. 8", "result": 70, "unit": "%"}, {"measurement": "relative tumor reversal", "setting": "[2]; 5 mM concentration, FIG. 8", "result": 50, "unit": "%"}]}
